According to US8877980B2, “Phenylboronic acid” (Al-Urdonia Lemudaddat Al-Ajsam Co., priority 2012, dated 2014):
Converted amounts (≈) assume the structure as drawn. Where two headings read alike, the source gives them in different places.

Assays:
P. aerugionsa ATCC 27853 [1] = experiment: Broth microdilution MIC determination; type: cell-based, P. aeruginosa; settings: for MIC: Pseudomonas aeruginosa
Description: (§1) The following bacterial strains were used; S. aureus ATCC 29350, E. coli ATCC 8739, and P. aeruginosa ATCC 27853. The cultivation medium for P. aeruginosa and E. coli were tryptone soy Agar (Oxoid, UK), and, 5% defibrinated sheep blood added to columbia blood agar base (Oxoid, UK). The bacterial cultures were aerobically grown at 37° C. for 24 hrs. For antimicrobial testing, the bacterial cultures were prepared by picking colonies from logarithmic phase of growth and suspended in 5 ml of Mueller Hinton broth with suitable supplements. The bacterium inoculum sizes were adjusted to 10^8 CFU/ml for all strains.
(§2) solutions of 2-(bromoacetamido)phenylboronic acid were prepared by gradually dissolving 2-(bromoacetamido)phenylboronic acid to the maximum solubility in 100% DMSO (1 mg/ml). Similarly standard stock solution of Vancomycin and Penicillin (1 mg/ml) were used as positive controls.
For the broth microdilution test, 100 μL of each bacterial suspension in suitable growth medium was added to the wells of a sterile 96-well microtitre plate already containing 100 μL of two-fold serially diluted 2-(bromoacetamido)phenylboronic acid or vancomycin and penicillin in proper growth medium. The final volume in each well was 200 μL. Control wells were prepared with culture medium, bacterial suspension only compound only and DMSO in amounts corresponding to the highest quantity present. […] To indicate cell viability, the presence of a purple color was determined after adding 20 μL/well of 500 ug/ml MTT (3-(4,5-Dimethylthiazol-2-yl-2,5-diphenyltetrazolium bromide, Sigma) and incubated under appropriate cultivation conditions (37° C. for 3 hrs). To determine the formation of formazan by living cells, OD570 was measured by a Microplate Reader (Thermoscientific, Finland) after adding 200 μL/well of a solubilizing solution (a mixture of DMSO:ethanol (1:1)). Positive controls were wells with a bacterial suspension in an appropriate growth medium. Negative controls were wells with growth medium and antimicrobial compound. […]

E. coli ATCC 8739 [2] = experiment: Disk diffusion; type: cell-based
Description: as §1, §2
(§3) For the disk diffusion assay, bacterial suspensions were prepared to the standard McFarland's (0.5) and subsequently uniformly spread on a solid growth medium in a Petri dish. Sterile paper disks (6 mm in diameter; oxoid, UK) were placed on the surface of each agar plate and were impregnated with 30 μL to a final concentration of 600 ug/ml of each agent to be tested. The plates were incubated for the recommended time periods (18-24 hrs) under appropriate cultivation conditions. Antibacterial activity was determined by measuring an inhibition zone around a disk following the incubation. Disks impregnated with sterile distilled water, DMSO served as negative controls and disks with standard antibiotics Vancomycin and penicillin (Oxoid, UK) served as positive controls. Triplicates at each concentration were performed and the average of the results was taken.

P. aerugionsa ATCC 27853 [3] = experiment: Disk diffusion; type: cell-based; settings: P. aeruginosa ATCC 27853
Description: as §1, §2, §3

MRSA clinical strain [4] = experiment: Broth microdilution MIC determination; type: cell-based, methicillin resistant S. aureus; settings: for MIC: Staphylococcus aureus, 24 h
MRSA clinical strain [5] = experiment: Disk diffusion; type: cell-based, methicillin resistant S. aureus
S. aureus ATCC 2592 [6] = experiment: Disk diffusion; type: cell-based
[7] = Single dose acute toxicity study and LD50 determination; type: in vivo, mice; settings: mouse, in vivo; acute oral, dissolved in DMSO, BALB/c mice; curve generated
Description: (§4) Results of Acute Toxicity of 2-(bromoacetamido)phenylboronic Acid in Balb/c Mice
(§5) • a. […] This effect started 30 minutes post treatment. The activity was recovered after 3 hours post treatment (for survived animals). […] The time of deaths was observed as dose dependent. Mice treated with 150 mg/kg died within 18 hours of 2-(bromoacetamido)phenylboronic acid administration while mice treated with 200 mg/kg died within 4 hours post treatment. • e.

Balb/c Mice = experiment: as above; type: in vivo
Description: as §4, §5

[8] = Maximum solubility in DMSO (stock solution); type: physicochemical; settings: 100% DMSO, organic solvent or mixture, thermodynamic from solid
Description: as §2

S. aureus ATCC 2592 [9] = experiment: Broth microdilution MIC determination; type: cell-based; settings: Staphylococcus aureus, ATCC2592, 24 h, MTT readout
E. coli ATCC 8739 [10] = experiment: Broth microdilution MIC determination; type: cell-based
Description: as §1, §2
For the broth microdilution test, 100 μL of each bacterial suspension in suitable growth medium was added to the wells of a sterile 96-well microtitre plate already containing 100 μL of two-fold serially diluted 2-(bromoacetamido)phenylboronic acid or vancomycin and penicillin in proper growth medium. The final volume in each well was 200 μL. Control wells were prepared with culture medium, bacterial suspension only compound only and DMSO in amounts corresponding to the highest quantity present. […]

CC1(C)S[C@@H]2[C@H](NC(=O)[C@H](N)c3ccccc3)C(=O)N2[C@H]1C(=O)O [Ampicillin, reference compound]
MIC (P. aerugionsa ATCC 27853 [1]; ATCC27853, 24 h): 150 µg/mL (≈ 429 µM) | Susceptibility category (S/R) beside zone of inhibition (E. coli ATCC 8739 [2]): S | Susceptibility category (S/R) beside zone of inhibition (P. aerugionsa ATCC 27853 [3]): R

CN[C@H](CC(C)C)C(=O)N[C@H]1C(=O)N[C@@H](CC(N)=O)C(=O)N[C@H]2C(=O)N[C@H]3C(=O)N[C@H](C(=O)N[C@H](C(=O)O)c4cc(O)cc(O)c4-c4cc3ccc4O)[C@H](O)c3ccc(c(Cl)c3)Oc3cc2cc(c3O[C@@H]2O[C@H](CO)[C@@H](O)[C@H](O)[C@H]2O[C@H]2C[C@](C)(N)[C@H](O)[C@H](C)O2)Oc2ccc(cc2Cl)[C@H]1O [Vancomycin, reference compound]
MIC (MRSA clinical strain [4]; MRSA): 0.4 µg/mL (≈ 0.276 µM) | Susceptibility category (S/R) beside zone of inhibition (MRSA clinical strain [5]): S | Susceptibility category (S/R) beside zone of inhibition (S. aureus ATCC 2592 [6]): S

O=C(CBr)Nc1ccccc1B(O)O [2-(bromoacetamido)phenylboronic acid]
Growth inhibition (statement in words) (P. aerugionsa ATCC 27853 [1]; P. aeruginosa, general statement of the description, method not named): inhibits the growth | MIC (P. aerugionsa ATCC 27853 [1]; ATCC27853, P. aeruginosa ATCC 27853, 24 h, MTT readout, read-out: MIC): > 600 µg/mL | Growth inhibition (statement in words) (MRSA clinical strain [4]; MRSA, general statement of the description, method not named): inhibits the growth | MIC (MRSA clinical strain [4]; MRSA clinical strain, MTT readout, read-out: MIC): 1.56 µg/mL (≈ 6.05 µM) | LD50 at 14 days [7]: ~130 mg/kg | % Death/group (Balb/c Mice; 10 mg/kg single oral dose in DMSO): 0% | % Death/group (Balb/c Mice; 50 mg/kg single oral dose in DMSO): 0% | % Death/group (Balb/c Mice; 100 mg/kg single oral dose in DMSO): 0% | Time of death after administration (Balb/c Mice; 150 mg/kg): ≤ 18 h | % Death/group (Balb/c Mice; 150 mg/kg single oral dose in DMSO): 70% | Time of death after administration (Balb/c Mice; 200 mg/kg): ≤ 4 h | % Death/group (Balb/c Mice; 200 mg/kg single oral dose in DMSO): 70% | Behaviour and clinical signs post administration (Balb/c Mice; 10, 50 and 100 mg/kg): behaved normally | Behaviour and clinical signs post administration (Balb/c Mice; 150 and 200 mg/kg): Reduced activity | Start of reduced activity post treatment (Balb/c Mice; 150 and 200 mg/kg): 30 min | Recovery of activity post treatment (Balb/c Mice; 150 and 200 mg/kg, survived animals): 3 h | Doses showing systemic toxicity and causing death (Balb/c Mice; acute oral, dissolved in DMSO, BALB/c mice): above 100 mg/kg | Change in body weights (Balb/c Mice; all groups): No significant change | Gross autopsy (Balb/c Mice; dead mice and all survivors at day 14): did not reveal any significant findings | % Death/gender (Balb/c Mice; females, 10 mg/kg single oral dose in DMSO): 0% | % Death/gender (Balb/c Mice; females, 50 mg/kg single oral dose in DMSO): 0% | % Death/gender (Balb/c Mice; females, 100 mg/kg single oral dose in DMSO): 0% | % Death/gender (Balb/c Mice; females, 150 mg/kg single oral dose in DMSO): 100% | % Death/gender (Balb/c Mice; males, 10 mg/kg single oral dose in DMSO): 0% | % Death/gender (Balb/c Mice; males, 50 mg/kg single oral dose in DMSO): 0% | % Death/gender (Balb/c Mice; males, 100 mg/kg single oral dose in DMSO): 0% | % Death/gender (Balb/c Mice; males, 150 mg/kg single oral dose in DMSO): 40% | % Death/gender (Balb/c Mice; males, 200 mg/kg single oral dose in DMSO): 80% | solubility [8]: 1000 µg/mL (≈ 3880 µM) | MIC (S. aureus ATCC 2592 [9]): 1.56 µg/mL (≈ 6.05 µM) | zone of inhibition at 600 µg/mL (S. aureus ATCC 2592 [6]; Staphylococcus aureus, ATCC2592, agent concentration as in row label (vancomycin 100 μg/ml, compound 600 μg/ml)): 24 mm | Growth inhibition (statement in words) (E. coli ATCC 8739 [10]; E. coli, general statement of the description, method not named): inhibits the growth | MIC (E. coli ATCC 8739 [10]; Escherichia coli, ATCC8739, E. coli ATCC 8739, 24 h, MTT readout): 75 µg/mL (≈ 291 µM) | zone of inhibition at 600 µg/mL (E. coli ATCC 8739 [2]; Escherichia coli, ATCC8739, agent concentration as in row label (ampicillin 20 mg/ml, compound 600 μg/ml)): 16 mm
